From patent US7670967B2, “Dispersible alcohol/cleaning wipes via topical or wet-end application of acrylamide or vinylamide/amine polymers” (Kimberly-Clark Worldwide, Inc., priority 2004, dated 2010) come the findings set out here.

The nature of the series: Solubility parameter (Hildebrand parameter) values for selected solvents and polyacrylamide. As to conditions: solvent with polyacrylamide homopolymer, δ 21.

Text: Determination of a suitable lower level alcohol, glycol, ketone, or mixtures thereof may be conducted using the solubility. The solubility of an amorphous polymer in a given solvent is governed by the Gibbs free energy of mixing given by Equation (1): ΔGm=ΔHm−TΔSm (1 ) ΔGm is the free energy change of the system upon mixing. ΔHm and ΔSm are the enthalpy and entropy change upon mixing, respectively, and T is the absolute temperature. When the free energy of mixing is less than zero (ΔGm<0) for a given polymer and solvent (or solvent mixture thereof), a single-phase system is obtained and mixing occurs spontaneously.
Solubility parameters, originally developed to describe enthalpy of mixing with simple nonpolar solvents, have been extended to describe the interactions of polymers and polar solvent. The enthalpy of mixing of such systems is expressed in a form like Equation (2):
[formula] […]
The units of δ may be difficult to rationalize. They are generally expressed as units of MPa½ or (cal/cm^3)^1/2. One simple way to understand these units is to note that Equation (4) calls for a solution in terms of a quantity of energy. It can be readily seen that substitution of δ values in terms of (cal/cm^3)^1/2 or MPa½ into Equation (4) results in a quantity of energy in terms of calories or joules, respectively, after unit cancellation (1 MPa=1 kJ/m^3). […]

Regarding `CC(C)=O` [Acetone], the “(δ1 − δ2)^2 PAM (cohesive energy difference parameter)” value turned out to be 123.2.

Regarding n-Propyl alcohol, the “(δ1 − δ2)^2 PAM (cohesive energy difference parameter)” value came to 82.8.
